# Values quoted from earlier work in patent US5750724A, “Indolealkyl derivatives of benzodioxanmethylamine” (American Home Products Corporation, priority 1996, dated 1998).
# Assays:
# 5-HT1A receptors = settings: European Journal of Pharmacology, 173 (1989), 189; cited from earlier work
# [1] = target: T1, 5-HT1A serotonin receptor (Rattus norvegicus, UniProt P19327); settings: reference agents; cited from earlier work
# T1 construct: following the procedure of Hall et al., J. Neurochem; 44, 1685 (1985); from tissue
# T1 sequence (P19327 1-422): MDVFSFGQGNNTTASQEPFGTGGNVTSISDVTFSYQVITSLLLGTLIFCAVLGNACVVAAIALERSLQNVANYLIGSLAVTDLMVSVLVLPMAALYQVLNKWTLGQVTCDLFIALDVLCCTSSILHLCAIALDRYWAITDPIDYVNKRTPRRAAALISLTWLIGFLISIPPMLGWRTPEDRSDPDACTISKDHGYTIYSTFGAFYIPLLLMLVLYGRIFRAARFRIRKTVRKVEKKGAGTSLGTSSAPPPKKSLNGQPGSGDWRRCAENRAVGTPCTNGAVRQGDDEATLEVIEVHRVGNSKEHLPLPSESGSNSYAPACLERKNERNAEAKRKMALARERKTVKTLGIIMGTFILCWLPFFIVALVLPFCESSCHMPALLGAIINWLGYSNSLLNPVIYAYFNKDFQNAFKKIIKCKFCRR
# [2] = cited from earlier work
Structure (SMILES),partial agonist activity at 5-HT1A receptors (in words) (5-HT1A receptors),affinity for the 5-HT1A serotonin receptor subtype (in words) [1],anxiolytic and antidepressant activity in clinical trials (in words) [2]
COc1ccc2[nH]cc(CCNCC3COc4ccccc4O3)c2c1 (stereo not drawn),partial agonist activity at 5-HT1A receptors,–,–
O=C1c2ccccc2S(=O)(=O)N1CCCCN1CCN(c2ncccn2)CC1 [ipsapirone],–,potent affinity,demonstrated both anxiolytic and antidepressant activity in clinical trials
